Assay results reported in patent US20180318199A1, “Pharmaceutical Composition Having Anti-Aging Properties against High-Glucose” (TAIWAN LEADER BIOTECH CORP., priority 2017, published 2018).

Columns and labels:
Type in all cases: cell-based, human
HNDFs (CCD966SK) = experiment: MTT cytotoxicity of antcins against HNDFs; settings: MTT, 72 h, up to 20 μM
Procedure: Please refer to FIG. 2A˜FIG. 2D, which are views showing HG-induced senescence affected by antcins in HNDFs. As shown in the figures, prior to an investigation, cytotoxicity of antcins against HNDFs is determined. In FIG. 2A, type of antcins are subjected to screen for potential anti-aging agents for skin aging. Names and chemical structures of the antcins are shown in the left and center column, respectively. The cytotoxic effects of antcins against HNDFs are investigated. Briefly, HNDFs are incubated with increasing concentrations (1, 5, 10 and 20 μM) of antcins including ANA, ANB, ANC, ANH, ANK and ANM for 72 h and the cell viability is determined by MTT assay. The 50% inhibitory concentrations (IC50) of each compound against HNDFs are shown in right column.
Cell viability is assessed by MTT colorimetric assay. Briefly, HNDFs (2×10^4cells/well) or HUVECs (5×10^4 cells/well) are seeded in a 24-well culture plate. After treatment with HG (15 and 30 mM) in the presence or absence of samples for 24-72 h, culture media is withdrawn and incubated with MTT (1 mg/mL) in fresh medium for 2 h. The MTT formazan crystals are dissolved in 400 μL of DMSO and the samples are measured at 570 nm […] using an ELISA microplate reader (Bio-Tek Instruments, Winooski, Vt.). The percentage of cell viability (%) is calculated as (A570 of treated cells/A570 of untreated cells)×100.

HO-1 and NQO-1 = experiment: Q-PCR of HO-1 and NQO-1 mRNA in HNDFs; settings: 12 h
Procedure: Therefore, it is hypothesized that ANM may upregulate anti-oxidant genes, which may suppress HG-induced ROS generation in HNDFs. In FIG. 5B and FIG. 5C, to quantify the mRNA expression levels of HO-1 and NQO-1, HNDFs are incubated with ANM (10 μM) or NAC (100 μM) in the presence or absence of HG (30 mM) for 12 h. Total RNA is extracted and subjected to Q-PCR analysis. Relative mRNA levels are normalized with β-actin mRNA. […] In contrast, as compared with the NG treatment group, […] expression levels of HO-1 and NQO-1 are observed in the HG treatment group.
As shown in the figures, to confirm a hypothesis that ANM protects HNDFs from HG-induced oxidative stress, an Nrf2 gene knockdown system using Nrf2 siRNA is developed. In FIG. 6A, HNDFs are transfected with specific siRNA against Nrf2 or control siRNA. After transfection for 24 h, cells are incubated with ANM (10 μM) in the presence of HG for 12 h. Total RNA is extracted and subjected to Q-PCR analysis to determine HO-1 and NQO-1 mRNA expression levels. […] From the data, it can be concluded that Nrf2 plays a vital role in HO-1 and NQO-1 induction even at the basal level.
(§1) Total RNA is extracted from cultured HNDFs using Trizol Reagent (Thermo Fisher Scientific). Q-PCR analysis is performed using Applied Biosystems detection instruments and software. Forward and reverse primers (10 μM), and the working solution SYBR green, is used as a PCR master mix, under the following conditions: 96° C. for 3 minutes followed by 40 cycles at 96° C. for 1 minute, 50° C. for 30 seconds and 72° C. for 90 seconds. GAPDH is used as an internal standard to control for variability in amplification because of differences in starting mRNA concentrations. The copy number of each transcript is calculated as the relative copy number normalized by GAPDH copy number.

[1] = test system: SIRT-1, SIRT-3 and SIRT-6; experiment: RT-PCR/Q-PCR of SIRT genes in HNDFs; settings: 72 h
Excerpt: As shown in the figures, to determine whether ANM regulates HNDF senescence through a SIRT-1-mediated pathway, expression levels of SIRT genes SIRT-1, SIRT-3 and SIRT-6 are is examined.
Total RNA is extracted and subjected to Q-PCR analysis to monitor SIRT-1, SIRT-3 and SIRT-6 expression. Relative mRNA levels are normalized by β-actin mRNA. Previous studies have shown that exposure of endothelial cells to HG rapidly decreases levels of expression of SIRT genes.
as §1

SIRT-1, SIRT-3, SIRT-6 = experiment: Western blot of SIRT proteins and phos-SIRT-1 in HNDFs; settings: 72 h
Procedure: Total cell lysate is extracted and subjected to western blot analysis to monitor SIRT-1, SIRT-3, SIRT-6 protein levels.
The protein expression levels of SIRT-1, SIRT-6, p21^CIP1, SMP30, p53, FoxO and acetylation of p53 and FoxO1 are determined by western blot analysis.
To further understand the regulation of SIRT-1 by ANM, the effect of ANM on SIRT-1 activation and protein stability is examined under hyperglycemic conditions. In FIG. 7I, cells are incubated with JNK/SAPK or p38 MAPK inhibitors SP600125 (SP, 30 μM) and SB203580 (SB, 30 μM) in the presence of HG for 72 h. The protein expression levels of phos-SIRT-1 and SIRT-1 are determined by western blotting. Results are expressed as mean±S.E.M of three independent experiments. Statistical significance is set at ^ϕP<0.05 as compared to NG vs. HG and *P<0.05 as compared to HG vs. samples. Previous studies have shown that hyperphosphorylation of SIRT-1 at serine 47 (Ser47) is correlated with enhanced endothelial senescence. In addition, persistent activation of JNK1/2 by multiple factors including hyperglycemia induces extensive SIRT-1 proteasome degradation followed by phosphorylation at Ser47. […] Therefore, it is hypothesized that ANM-mediated suppression of JNK1/2 and p38 MAPK activation may have a functional role in the stability of SIRT-1 protein.
Cells are lysed by either RIPA lysis buffer or nuclear and cytoplasmic extraction reagents (Thermo Fisher Scientific). Protein concentrations are determined by Bio-Rad protein assay reagent (Bio-Rad Laboratories, Hercules, Calif.). Equal amounts of protein samples (60 μg) are separated by 7-12% SDS-PAGE and the separated proteins are transferred onto polyvinylidene […] (PVDC) membrane overnight. The transferred protein membranes are blocked with 5% non-fat dried milk for 30 min, followed by incubation with specific primary antibodies overnight, and either horseradish peroxidase-conjugated goat anti-rabbit or anti-mouse antibodies for 2 h. The blots are detected using VL Chemi-Smart 3000 (Viogene Biotek, Sunnyvale, Calif.) with the enhanced chemiluminescence (ECL) western blotting reagent (Millipore, Billerica, Mass.).

SMILES: C=C(CCC(C)C1CCC2C3=C(C(=O)C(O)C21C)C1(C)CCC(O)C(C)C1CC3)C(C)C(=O)O (stereo not shown) [ANM, antcin M]
- cytotoxicity to HNDFs (in words) (HNDFs (CCD966SK)): did not show significant cytotoxicity
- HO-1 and NQO-1 mRNA levels in HG treated groups (HO-1 and NQO-1; ANM 10 μM + HG 30 mM): further increased
- HO-1 and NQO-1 expression, siNrf2-transfected cells (HO-1 and NQO-1; ANM 10 μM + HG): decrease
- HO-1 and NQO-1 mRNA levels, control siRNA cells (HO-1 and NQO-1; ANM 10 μM + HG, scrambled siRNA): remarkable increase
- HO-1 and NQO-1 mRNA levels, compound alone (HO-1 and NQO-1; ANM 10 μM, no HG): significantly increases
- SIRT-1 and SIRT-6 mRNA, HG-induced depletion ([1]; ANM 10 μM + HG, Q-PCR): rescues
- SIRT-1, SIRT-3 and SIRT-6 levels (RT-PCR) ([1]; ANM 10 μM, no HG, vs control): significantly increased
- HG-induced reduction in SIRT-1, SIRT-3 and SIRT-6 proteins (SIRT-1, SIRT-3, SIRT-6; ANM 10 μM + HG 30 mM): significantly prevented
- SIRT-1 and SIRT-6 expression, control siRNA cells (SIRT-1, SIRT-3, SIRT-6; ANM 10 μM + HG): significantly increases
- HG-induced SIRT-1 phosphorylation at Ser47 (SIRT-1, SIRT-3, SIRT-6; ANM or RES + HG): significantly attenuates
